These results are taken from ChEMBL document CHEMBL1201862, “PubChem BioAssay data set” (2004).

Test systems include 786-0; MCF7; MDA-MB-435; OVCAR-4; COLO 205; Malme-3M; SF-268; PC-3; LOX IMVI; SNB-19; HCC 2998; CAKI-1; CCRF-CEM; Hs-578T; IGROV-1; T47D; HOP-62; UACC-62; HT-29.
Holding throughout (assay): inhibition of tumour cell growth, NCI panel, 48 h

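Assay format: 96-well plates, 48-hour exposure. GI50 is the concentration that inhibits growth by half.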 Calls of active or inactive are those of the source. No stated cut-off is given here; in the data, active = GI50 up to about 1.1 µM and inactive = higher.

For `Clc1ccc(Nc2ncco2)cc1Cl`, the GI50 in the assay with 786-0, in the assay with MCF7, with MDA-MB-435, with OVCAR-4, in the assay on COLO 205 and in the assay on Malme-3M was > 10 µM (inactive) throughout. Also, the GI50 in the assay with SF-268, in the assay on PC-3, with LOX IMVI, with SNB-19, with HCC 2998 and in the assay with CAKI-1 was > 10 µM (inactive) throughout. In addition, the GI50 in the assay on CCRF-CEM, with Hs-578T, in the assay with IGROV-1, in the assay on T47D, in the assay with HOP-62 and in the assay with UACC-62 was > 10 µM (inactive) each time. For the same compound, the GI50 in the assay with HT-29 was > 10 µM (inactive).

With `Nc1ccn(C2CCC(COP(=O)(O)OCC(O)COP(=O)(O)OCC3OC(n4cc(F)c(=O)[nH]c4=O)CC3O)O2)c(=O)n1` (configuration not stated), the GI50 was > 76.4 µM (inactive) in the assay with 786-0; < 0.01 µM (active) in the assay on MCF7; 14.8 µM (inactive) in the assay with MDA-MB-435; > 23.7 µM (inactive) with OVCAR-4; 8.3 µM (inactive) in the assay on COLO 205; > 53.8 µM (inactive) in the assay with Malme-3M. Besides, the GI50 in the assay with SF-268 is 0.0101 µM (active); in the assay with PC-3, 2.01 µM (inactive); with LOX IMVI, < 0.0149 µM (active); in the assay on SNB-19, 0.211 µM (active); in the assay with HCC 2998, 0.656 µM (active); in the assay on CAKI-1, 0.316 µM (active). For the same compound, the GI50 with CCRF-CEM was 0.124 µM (active); with Hs-578T it was 1.96 µM (inactive); in the assay on IGROV-1, 11.2 µM (inactive); in the assay on T47D, 1.42 µM (inactive); with HOP-62, 0.232 µM (active); in the assay on UACC-62, 0.136 µM (active). Further, in the assay with HT-29, the GI50 is 2.79 µM (inactive).

As for `CCOC(=O)/C=C(\C(=O)OCC)n1ccc(=O)n(Cc2cn(COCCOC(C)=O)nn2)c1=O`, the GI50 in the assay with 786-0 was 15.7 µM (inactive); in the assay with MCF7 it was 17.1 µM (inactive); with MDA-MB-435 it was 18.7 µM (inactive); in the assay with OVCAR-4, 19.5 µM (inactive); with COLO 205, 7.94 µM (inactive); in the assay with Malme-3M, 15.2 µM (inactive). Moreover, the GI50 was 26.1 µM (inactive) in the assay on SF-268; 20.3 µM (inactive) with PC-3; 17.9 µM (inactive) in the assay with LOX IMVI; > 50.4 µM (inactive) in the assay on SNB-19; 16.6 µM (inactive) in the assay on HCC 2998; 8.67 µM (inactive) with CAKI-1. Moreover, the GI50 with CCRF-CEM is 2.83 µM (inactive); in the assay with Hs-578T, 26.5 µM (inactive); in the assay on IGROV-1 it was 21.1 µM (inactive); in the assay on T47D, 24.3 µM (inactive); with HOP-62, 98.6 µM (inactive); with UACC-62, 18.8 µM (inactive). The GI50 in the assay with HT-29 was 16.2 µM (inactive).

On to `CC(=O)c1nc(C#N)c(N)o1`, for which the GI50 with 786-0, in the assay on MCF7, with MDA-MB-435, with OVCAR-4, with COLO 205 and with Malme-3M was > 100 µM (inactive) throughout. In addition, the GI50 in the assay with SF-268, in the assay on PC-3, in the assay on LOX IMVI, in the assay with SNB-19, in the assay with HCC 2998 and in the assay on CAKI-1 was > 100 µM (inactive) each time. The GI50 in the assay on CCRF-CEM, in the assay with Hs-578T, in the assay with IGROV-1, in the assay with T47D, in the assay on HOP-62 and in the assay with UACC-62 was > 100 µM (inactive) in each case. Further, the GI50 in the assay with HT-29 was > 100 µM (inactive).

As for `COc1cccc(C2SCC(=O)N2c2ccc(-c3ccc(-n4c(-c5ccccc5)nc5ccccc5c4=O)cc3)cc2)c1OC` (configuration not stated), the GI50 is > 100 µM (inactive) with 786-0; 25.2 µM (inactive) in the assay on MCF7; 53.5 µM (inactive) in the assay with MDA-MB-435; 77.6 µM (inactive) in the assay on OVCAR-4; > 100 µM (inactive) with COLO 205; > 100 µM (inactive) in the assay with Malme-3M. Moreover, the GI50 was 71.8 µM (inactive) with SF-268; > 100 µM (inactive) in the assay with PC-3; 50.7 µM (inactive) in the assay with LOX IMVI; > 100 µM (inactive) in the assay with SNB-19; > 100 µM (inactive) in the assay with HCC 2998; 67.8 µM (inactive) in the assay on CAKI-1. For the same compound, the GI50 with CCRF-CEM was 67.1 µM (inactive); with Hs-578T, 58.9 µM (inactive); with IGROV-1, 99.1 µM (inactive); in the assay on T47D it was 24.5 µM (inactive); in the assay on HOP-62 it was > 100 µM (inactive); in the assay on UACC-62 it was 29 µM (inactive). Moreover, the GI50 with HT-29 is 68.4 µM (inactive).

Take `O=C(Cc1ccc2ccccc2c1)NCc1ccc(C(=O)NCCc2ccccc2)cc1`: the GI50 with 786-0, with MCF7, with MDA-MB-435, in the assay on OVCAR-4, with COLO 205 and in the assay with Malme-3M was > 100 µM (inactive) in each case. For the same compound, the GI50 in the assay on SF-268, in the assay with PC-3, with LOX IMVI, in the assay with SNB-19, in the assay with HCC 2998 and with CAKI-1 was > 100 µM (inactive) each time. Moreover, the GI50 in the assay on CCRF-CEM was 20.3 µM (inactive); in the assay on Hs-578T it was > 100 µM (inactive); with IGROV-1 it was > 100 µM (inactive); with T47D it was > 100 µM (inactive); in the assay with HOP-62, > 100 µM (inactive); in the assay on UACC-62 it was > 100 µM (inactive). Besides, the GI50 in the assay with HT-29 is 94.4 µM (inactive).

With `CCN1C(=O)C(=C/C=C/c2ccc(OC)cc2)C(=O)N(CC)C1=S`, the GI50 in the assay on 786-0 is 17.6 µM (inactive); with MCF7, 33.8 µM (inactive); in the assay on MDA-MB-435 it was 21.6 µM (inactive); with OVCAR-4, 95.5 µM (inactive); in the assay with COLO 205 it was 18.5 µM (inactive); in the assay on Malme-3M, 12.5 µM (inactive). Besides, the GI50 was 24.6 µM (inactive) in the assay with SF-268; 19.4 µM (inactive) with PC-3; 17.3 µM (inactive) in the assay on LOX IMVI; 37.9 µM (inactive) with SNB-19; 53.2 µM (inactive) in the assay with HCC 2998; 21.7 µM (inactive) in the assay on CAKI-1. Besides, the GI50 in the assay with CCRF-CEM was 20.6 µM (inactive); with Hs-578T, 15.7 µM (inactive); in the assay on IGROV-1, 16.3 µM (inactive); in the assay with T47D, > 100 µM (inactive); with HOP-62, 18.6 µM (inactive); in the assay with UACC-62, 16.7 µM (inactive). In the assay with HT-29, the GI50 was 22.6 µM (inactive).

Turning to `N=C(N)N/N=C/c1c(Cl)nc2n1CCS2`, the GI50 in the assay with 786-0 is 49.4 µM (inactive); in the assay with MCF7, 46.1 µM (inactive); in the assay with MDA-MB-435, 59.4 µM (inactive); in the assay on OVCAR-4, > 100 µM (inactive); in the assay on COLO 205 it was 34.7 µM (inactive); in the assay with Malme-3M it was > 100 µM (inactive). Also, the GI50 is 50.8 µM (inactive) with SF-268; 66.5 µM (inactive) in the assay with PC-3; > 100 µM (inactive) in the assay with LOX IMVI; > 100 µM (inactive) in the assay on SNB-19; 45.3 µM (inactive) in the assay on HCC 2998; > 100 µM (inactive) with CAKI-1. For the same compound, the GI50 with CCRF-CEM was 71.9 µM (inactive); in the assay with Hs-578T, 64.1 µM (inactive); in the assay on IGROV-1, > 100 µM (inactive); in the assay with T47D, > 100 µM (inactive); in the assay on HOP-62, 38.1 µM (inactive); in the assay with UACC-62, > 100 µM (inactive). The GI50 with HT-29 is 38 µM (inactive).
